Data as given in ChEMBL document CHEMBL3227967, “Quantitative structure-activity relationships in 1-aryl-2-(alkylamino)ethanol antimalarials” (J Med Chem, 1979).

Tested on: Plasmodium berghei
Assay: Antimalarial activity against Plasmodium berghei
Type: functional

Compound | log(1/C)
CCCCCCCNCC(O)c1cc(-c2ccc(C(F)(F)F)cc2)nc(-c2ccc(C(F)(F)F)cc2)c1 (stereo not drawn) | 3.67
Cc1ccc2cc(C(O)CC3CCCCN3)c3ccc(C(F)(F)F)cc3c2c1 (stereo not drawn) | 3.16
CCCC(CCC)NCC(O)c1cc(/C=C/c2ccc(C(F)(F)F)cc2)nc(/C=C/c2ccc(C(F)(F)F)cc2)c1 (stereo not drawn) | 4.24
CCCCN(CCCC)CC(O)c1c(Br)c2ccccc2c2ccccc12 (stereo not drawn) | 2.51
COc1cc2c(C(O)CC3CCCCN3)cc(-c3ccc(Cl)cc3)cc2cc1Cl (stereo not drawn) | 3
CCCCCCCN(CCCCCCC)CC(O)c1cc2sccc2c2ccsc12 (stereo not drawn) | 2.58
CCCCCCCN(CCCCCCC)CC(O)c1cccc2c1c(Br)cc1ccccc12 (stereo not drawn) | 2.27
CCCCN(CCCC)CC(O)c1cc(-c2ccc(Cl)cc2)nc(-c2ccc(C(F)(F)F)cc2)c1 (stereo not drawn) | 3.43
CCCCN(CCCC)CC(O)c1cc(-c2ccc(Cl)c(Cl)c2)nc2c(Cl)cc(Cl)cc12 (stereo not drawn) | 4.21
CCCCN(CCCC)CC(O)c1cccc2ccc3cccc(Cl)c3c12 (stereo not drawn) | 2.3
CCCCCCCN(CCCCCCC)CC(O)c1cc(Cl)cc2cc3ccccc3cc12 (stereo not drawn) | 3.1
CCCCN(CCCC)CC(O)c1cc(-c2ccc(C)cc2)nc2c(C)cc(C)cc12 (stereo not drawn) | 2.72
CN1CCCC1CC(O)c1cc2ccc(Cl)cc2c2cc(Cl)ccc12 (stereo not drawn) | 3.46
CCCCN(CCCC)CC(O)c1cc(C(=O)c2cc(Cl)cc(Cl)c2)nc2c(C(F)(F)F)cc(Cl)cc12 (stereo not drawn) | 4.82
CCCCN(CCCC)CC(O)c1cc2cc(SC)ccc2c2cc(Cl)c(Cl)cc12 (stereo not drawn) | 3.74
CCCCCCCN(CCCCCCC)CC(O)c1cc2cnccc2c2ccccc12 (stereo not drawn) | 2.47
CCCCN(CCCC)CC(O)c1cc(C(=O)c2cc(C(F)(F)F)cc(C(F)(F)F)c2)nc2c(Cl)cc(Cl)cc12 (stereo not drawn) | 4.64
OC(CNC1CCCCC1)c1cc(-c2ccc(C(F)(F)F)cc2)nc(-c2ccc(C(F)(F)F)cc2)c1 (stereo not drawn) | 4.17
CCCCN(CCCC)CC(O)c1cccc2c1ccc1cc(Cl)c(Cl)cc12 (stereo not drawn) | 2.96
OC(CC1CCCCN1)c1cc2c(Cl)cc(Cl)cc2c2ccc(Cl)cc12 (stereo not drawn) | 3.79
CCCCN(CCCC)CC(O)c1cc(C(F)(F)c2ccccc2)nc2c(Cl)cccc12 (stereo not drawn) | 2.46
OC(CC1CCCCN1)c1cc2cccc(C(F)(F)F)c2c2cc(C(F)(F)F)ccc12 (stereo not drawn) | 3.54
CCCCN(CCCC)CC(O)c1cc2cc(Cl)cc(Cl)c2c2cc(Cl)ccc12 (stereo not drawn) | 4.21
CCCCN(CCCC)CC(O)c1cc2ccc(Cl)cc2c2cc(OC)ccc12 (stereo not drawn) | 2.49
CCCCN(CCCC)CC(O)c1cc2ccc(Br)cc2c2ccsc12 (stereo not drawn) | 2.57

Compound | log(1/C)
CCCCN(CCCC)CC(O)c1cc(/C=C/c2ccc(C(F)(F)F)cc2)nc(-c2ccc(C(F)(F)F)cc2)c1 (stereo not drawn) | 4.26
CCCCN(CCCC)CC(O)c1cc(-c2ccccc2)nc2ccccc12 (stereo not drawn) | 2.54
OC(CC1CCCCN1)c1cc2cc(Cl)cc(Cl)c2c2cc(C(F)(F)F)ccc12 (stereo not drawn) | 4.43
OC(CC1CCCCN1)c1cc2cc(Cl)c(Cl)cc2c2cc(Cl)ccc12 (stereo not drawn) | 3.69
CCCCN(CCCC)CC(O)c1cc(-c2cc(OC)c(OC)c(OC)c2)nc2c1cc(Cl)c1ccccc12 (stereo not drawn) | 3.32
OC(CC1CCCCN1)c1cc(C(F)(F)F)nc2ccc(F)cc12 (stereo not drawn) | 2.33
CC(C)CN(C)CC(O)c1cc(-c2ccc(Cl)cc2)nc(-c2ccc(Cl)cc2)c1 (stereo not drawn) | 3.29
CCN(CC)CC(O)c1cc(-c2ccc(Cl)cc2)cc2ccccc12 (stereo not drawn) | 3.51
CCCCCCCN(CCCCCCC)CC(O)c1cc2cccc(Cl)c2c2ccccc12 (stereo not drawn) | 2.82
C=C[C@H]1CN2CC[C@H]1C[C@H]2[C@H](O)c1ccnc2ccc(OC)cc12.O=C(O)CCC(=O)O | 2.28
CCCCN(CCCC)CC(O)c1cc(C(=O)c2cccc(Cl)c2)nc2c(C(F)(F)F)cc(Cl)cc12 (stereo not drawn) | 3.98
CCCCCCN(CCCCCC)CC(O)c1cc2ccc(C(F)(F)F)cc2c2ccsc12 (stereo not drawn) | 2.49
CCCCN(CCCC)C(C)CC(O)c1cc(-c2ccc(Cl)cc2)nc2c(C)cc(C)cc12 (stereo not drawn) | 2.42
CC(C)N(C)CC(O)c1cc(-c2ccc(Cl)cc2)nc2c(Cl)cc(Cl)cc12 (stereo not drawn) | 3.72
CCCCN(CCCC)CC(O)c1cc2cc(Cl)c(Cl)cc2c2c(Cl)cc(Cl)cc12 (stereo not drawn) | 4.18
CCCCCCN(CCCCCC)CC(O)c1cc(-c2ccc(Cl)cc2)nc2cc(C(F)(F)F)ccc12 (stereo not drawn) | 2.85
CCCCN(CCCC)CC(O)c1cc2ccc(C(F)(F)F)cc2c2ccsc12 (stereo not drawn) | 2.81
OC(CC1CCCCN1)c1cc2ccccc2c2ccccc12 (stereo not drawn) | 2.53
CCCCN(CCCC)CC(O)c1cc2ccc(Br)cc2c2cc(Br)ccc12 (stereo not drawn) | 3.63
CCCCN(CCCC)CC(O)c1ccc2ccc3cccc(C(F)(F)F)c3c2c1 (stereo not drawn) | 2.23
CCCCN(CCCC)CC(O)c1cc(Cl)nc2ccccc12 (stereo not drawn) | 2.14
CCCCN(CCCC)CC(O)c1cc2ccc(C(F)(F)F)cc2c2cc(C)sc12 (stereo not drawn) | 2.52
CCCCN(CCCC)CC(O)c1cc(-c2ccc(C(F)(F)F)cc2)nc(-c2ccc(C(F)(F)F)cc2)c1 (stereo not drawn) | 4.09
CCCCN(CCCC)CC(O)c1cc2cc(Cl)cc(Cl)c2c2cc(C(F)(F)F)ccc12 (stereo not drawn) | 3.74
Cc1ccc(-c2cc(C(O)CC3CCCCN3)c3cccc(C(F)(F)F)c3n2)cc1 (stereo not drawn) | 3.94

Compound | log(1/C)
OC(CC1CCCCN1)c1cc(-c2ccc(Cl)cc2)nc(-c2ccc(Cl)cc2)c1 (stereo not drawn) | 3.83
CCCCN(CCCC)CC(O)c1cc(Cl)c2nc(-c3ccccc3)ccc2c1 (stereo not drawn) | 2.51
OC(CC1CCCCN1)c1cc(-c2ccccc2)nc2c(Cl)cccc12 (stereo not drawn) | 2.69
CCCCN(CCCC)CC(O)c1cc2ccc(C(F)(F)F)cc2c2sccc12 (stereo not drawn) | 2.98
CCCCNCC(O)c1cc(-c2ccc(Br)cc2)nc(-c2ccc(C(F)(F)F)cc2)c1 (stereo not drawn) | 3.94
Cc1cc(C)c2nc(Nc3ccc(Cl)cc3)cc(C(O)CC3CCCCN3)c2c1 (stereo not drawn) | 2.74
Cc1cc(C)c2nc(-c3ccc(F)cc3)cc(C(O)CC3CCCCN3)c2c1 (stereo not drawn) | 3.61
Cc1cccc2c(C(O)CC3CCCCN3)cc(C(F)(F)F)nc12 (stereo not drawn) | 2.93
CCCCN(CCCC)CC(O)c1cccc2cc3ccccc3cc12 (stereo not drawn) | 2.27
CCCCCCCN(CCCCCCC)CC(O)c1cc(-c2ccc(F)cc2)nc(-c2ccc(F)cc2)c1 (stereo not drawn) | 2.55
CCCCCCN(CCCCCC)CC(O)c1cc(-c2ccc(Cl)c(Cl)c2)nc2cc(OC)ccc12 (stereo not drawn) | 3.1
CCCCN(CCCC)CC(O)c1cc(C(=O)c2cccc(Cl)c2Cl)nc2c(C(F)(F)F)cc(Cl)cc12 (stereo not drawn) | 4.52
CCCCCCCN(CCCCCCC)CC(O)c1cc2ccc(C(F)(F)F)cc2c2ccsc12 (stereo not drawn) | 2.69
CCCCCCCN(CCCCCCC)CC(O)c1cccc2c1cc(Cl)c1cc(Cl)c(Cl)cc12 (stereo not drawn) | 2.71
CCCCN(CCCC)CC(O)c1c2cccc(Cl)c2cc2c(Cl)cccc12 (stereo not drawn) | 2.76
CCCCN(CCCC)CC(O)c1cc2ccc(C(C)(C)C)cc2c2cc(C(C)(C)C)ccc12 (stereo not drawn) | 3.19
CCCCN(CCCC)CC(O)c1cc2ccc(C(F)(F)F)cc2c2cc(Cl)sc12 (stereo not drawn) | 3.84
CCCCN(CCCC)CC(O)c1cc2cc(Cl)cc(Cl)c2c2cc(SC)ccc12 (stereo not drawn) | 3.88
CC(C)NCCC(O)c1cc2ccc(C(F)(F)F)cc2c2cc(C(F)(F)F)ccc12 (stereo not drawn) | 3.89
CCCCNCCC(O)c1c2ccccc2c(Cl)c2cc(C(F)(F)F)ccc12 (stereo not drawn) | 3
OC(Cc1ccc2ccccc2n1)c1cc2ccc(C(F)(F)F)cc2c2cc(C(F)(F)F)ccc12 (stereo not drawn) | 4.11
CCCCN(CCCC)CC(O)c1cc(-c2cccc(C(F)(F)F)c2)nc2c(Cl)cc(Cl)cc12 (stereo not drawn) | 3.93
CCCN(CCC)CCC(O)c1cc2ccc(C(F)(F)F)cc2c2cc(C(F)(F)F)ccc12 (stereo not drawn) | 4.23
CCN(CC)CC(O)c1cc(-c2ccc(Br)cc2)nc(-c2ccc(Br)cc2)c1 (stereo not drawn) | 3.13
CCCCN(CCCC)CC(O)c1cc(/C=C/c2ccc(Cl)cc2)nc(C23CC4CC(CC(C4)C2)C3)c1 (stereo not drawn) | 2.72

Compound | log(1/C)
CCCCN(CCCC)CC(O)c1cc(-c2ccc(Br)cc2)nc(-c2ccc(Br)cc2)c1 (stereo not drawn) | 3.31
CCCN(CCC)CC(O)c1cccc2c1cc(Cl)c1ccccc12 (stereo not drawn) | 2.02
CCCCN(CCCC)CC(O)c1cc2c(Cl)cc(Cl)cc2c2sccc12 (stereo not drawn) | 3.28
OC(CC1CCCCN1)c1cc(Nc2ccc(Cl)cc2)nc2ccccc12 (stereo not drawn) | 2.52
CCCCCCCN(CCCCCCC)CC(O)c1cc2ccc(Cl)c(Cl)c2c2cc(C(F)(F)F)ccc12 (stereo not drawn) | 3.92
CCCCCCN(CCCCCC)CC(O)c1cc2ccccc2c2ccccc12 (stereo not drawn) | 2.4
CCCCCCCN(CCCCCCC)CC(O)c1cc(-c2ccc(Cl)cc2)nc2c(C(F)(F)F)cccc12 (stereo not drawn) | 3.13
CCCCNCC(O)c1cc(-c2ccc(C(F)(F)F)cc2)nc(C(F)(F)F)c1 (stereo not drawn) | 4.08
CC(C)(C)NCC(O)c1cc2ccccc2c2ccccc12 (stereo not drawn) | 2.09
CCCCCCCN(CCCCCCC)CC(O)c1cc2ccncc2c2ccccc12 (stereo not drawn) | 2.33
OC(CC1CCCCN1)c1cc2cc(C(F)(F)F)ccc2c2cc(C(F)(F)F)ccc12 (stereo not drawn) | 3.85
CCCCCCCN(CCCCCCC)CC(O)c1ccc2ccc3cccc(C(F)(F)F)c3c2c1 (stereo not drawn) | 2.58
CCCCN(CCCC)CC(O)c1cc(-c2ccccc2)nc(-c2ccc(Cl)cc2)c1 (stereo not drawn) | 2.91
OC(CC1CCCCN1)c1cc(-c2ccc(Cl)cc2)nc2c1ccc1ccccc12 (stereo not drawn) | 3.2
OC(CC1CCCCN1)c1cc2ccccc2c2ccc(C(F)(F)F)cc12 (stereo not drawn) | 3.22
OC(CC1CCCCN1)c1cc2ccc(Cl)cc2c2cc(C(F)(F)F)ccc12 (stereo not drawn) | 4.09
CCCCNCC(O)c1cc(-c2ccc(Cl)cc2)nc(-c2ccc(Cl)cc2)c1 (stereo not drawn) | 3.56
CCCCCCN(CCCCCC)CC(O)c1cc(-c2ccc(OC)c(OC)c2)nc2cc(Cl)ccc12 (stereo not drawn) | 3.32
CCCCN(CCCC)CCC(O)c1cc(-c2ccc(Cl)c(Cl)c2)nc2c(Cl)cc(Cl)cc12 (stereo not drawn) | 4.67
OC(CC1CCCCN1)c1cc2cc(Cl)ccc2c2c(C(F)(F)F)cccc12 (stereo not drawn) | 4.05
CCCCCCCN(CCCCCCC)CC(O)c1cc2ccc(Br)cc2c2sccc12 (stereo not drawn) | 2.67
CCCCCCCN(CCCCCCC)CC(O)c1cc2cccnc2c2ccccc12 (stereo not drawn) | 2.9
CCCCCCCN(CCCCCCC)CC(O)c1cc2ccc(Cl)cc2c2ncccc12 (stereo not drawn) | 2.48
